Experimental data taken from patent publication US20140107107A1, “PHARMACEUTICAL FORMULATION CONTAINING THIENOTRIAZOLODIAZEPINE COMPOUNDS” (Oncoethix SA, priority 2012, published 2014).

What was measured:
[1] = pharmacokinetics and oral bioavailability in dogs; type: in vivo; settings: male, beagle, dog, plasma, 1 mg/kg IV
Procedure: Blood samples were collected from the jugular vein of each animal at 0 (pre-dose), 5, 15, and 30 minutes and 1, 2, 4, 8, 12, and 24 hours following intravenous administration and at 0 (pre-dose), 15 and 30 minutes and 1, 2, 4, 8, 12, and 24 hours following oral gavage administration. The amount of compound (1-1) present in each sample was detected using a qualified LC-MS/MS method with a lower limit of quantification of 0.5 ng/mL. The area under the plasma concentration-time curve (AUC) was determined by use of the linear trapezoidal rule up to the last measurable concentration without extrapolation of the terminal elimination phase to infinity. The elimination half-life (t1/2) was calculated by least-squares regression analysis of the terminal linear part of the log concentration-ime curve. The maximum plasma concentration (Cmax) and the time to Cmax (tmax) were derived directly from the plasma concentration data. The oral bioavailability (F) was calculated by dividing the dose normalized AUC after oral administration by the dose normalized AUC after intravenous administration and reported as percentages (%).

[2] = oral exposure in the rat (pharmacokinetics); type: in vivo, Hsd:Sprague Dawley rats; settings: 1 mg/kg intravenous
Procedure: The oral bioavailability of three formulations of solid dispersions of compound (1-1) was determined in rats. The three dispersions chosen were the 25% dispersion of compound (1-1) in PVP, the 25% dispersion of compound (1-1) in HPMCAS-MG, and the 50% dispersion of compound (1-1) in HPMCAS-MG. The animals used in the study were Specific Pathogen Free (SPF) Hsd:Sprague Dawley rats obtained from the Central Animal Laboratory at the University of Turku, Finland. The rats were originally purchased from Harlan, The Netherlands. The rats were female and were ten weeks of age, and 12 rats were used in the study. The animals were housed in polycarbonate Makrolon II cages (three animals per cage), the animal room temperature was 21+/−3° C., the animal room relative humidity was 55+/−15%, and the animal room lighting was artificial and was cycled for 12 hour light and dark periods (with the dark period between 18:00 and 06:00 hours). Aspen chips (Tapvei Oy, Estonia) were used for bedding, and bedding was changed at least once per week. Food and water was provided prior to dosing the animals but was removed during the first two hours after dosing.
The oral dosing solutions containing the 25% dispersion of compound (1-1) in PVP, the 25% dispersion of compound (1-1) in HPMCAS-MG, and the 50% dispersion of compound (1-1) in HPMCAS-MG were prepared by adding a pre-calculated amount of sterile water for injection to containers holding the dispersion using appropriate quantities to obtain a concentration of 0.75 mg/mL of compound (1-1). The oral dosing solutions were subjected to vortex mixing for 20 seconds prior to each dose. The dosing solution for intravenous administration contained 0.25 mg/mL of compound (1-1) and was prepared by dissolving 5 mg of compound (1-1) in a mixture containing 4 mL of polyethylene glycol with an average molecular weight of 400 Da (PEG400), 4 mL of ethanol (96% purity), and 12 mL of sterile water for injection. The dosing solution containing the 25% dispersion of compound (1-1) in PVP was used within 30 minutes after the addition of water. The dosing solutions containing the 25% dispersion of compound (1-1) in HPMCAS-MG and the 50% dispersion of compound (1-1) in HPMCAS-MG were used within 60 minutes of after the addition of water. A dosing volume of 4 mL/kg was used to give dose levels of compound (1-1) of 1 mg/kg for intravenous administration and 3 mg/kg for oral administration.
Blood samples of approximately 50 μL were collected into Eppendorf tubes containing 5 μL of ethylenediaminetetraacetic acid (EDTA) solution at time points of 0.25, 0.5, 1, 2, 4, 8, 12, and 24 hours after dosing, with each sample collected within a window of 5 minutes from the prescribed time point. From each sample, 20 μL of plasma was obtained and stored at dry ice temperatures for analysis. Analysis of each sample for the concentration of compound (1-1) was performed using a validated liquid chromatography tandem mass spectrometry (LC-MS/MS) method with a lower limit of quantitation of 0.5 ng/mL.
Pharmacokinetic parameters were calculated with the Phoenix WinNonlin software package (version 6.2.1, Pharsight Corp., CA, USA) with standard noncompartmental methods. The elimination phase half-life (t1/2) was calculated by least-squares regression analysis of the terminal linear part of the log concentration-time curve. The area under the plasma concentration-time curve (AUC) was determined by use of the linear trapezoidal rule up to the last measurable concentration and thereafter by extrapolation of the terminal elimination phase to infinity. The mean residence time (MRT), representing the average amount of time a compound remains in a compartment or system, was calculated by extrapolating the drug concentration profile to infinity. The maximum plasma concentration (Cmax) and the time to Cmax (tmax) were derived directly from the plasma concentration data. […]

[3] = female, Hsd:Sprague Dawley, plasma

half-life [1]: 1.5 h
Cmax ([1]; average of three dogs): 769 ng/mL
Tmax ([1]; average of three dogs): 4.98 min
AUC ([1]; to last measurable concentration): 889 ng·h/mL
CI/F [2]: 13.4 mL/min/kg
Cmax [2, 3]: 730 ng/mL
MRT [2, 3]: 7.4 h
Tmax [2, 3]: 0.25 h
half-life [2, 3]: 8.5 h
AUC ([2]; female, Hsd:Sprague Dawley, plasma, extrapolated to infinity): 1240 ng·h/mL
SMILES: Cc1sc2c(c1C)C(c1ccc(Cl)cc1)=N[C@@H](CC(=O)Nc1ccc(O)cc1)c1nnc(C)n1-2 [Compound (1-1), 2-[(6S)-4-(4-chlorophenyl)-2,3,9-trimethyl-6H-thienol[3,2f]-[1,2,4]triazolo[4,3-a][1,4]diazepin-6-yl]-N-(4-hydroxyphenyl)acetamide dihydrate]
